In ChEMBL document CHEMBL4007418, “Application of Off-Rate Screening in the Identification of Novel Pan-Isoform Inhibitors of Pyruvate Dehydrogenase Kinase” (J Med Chem, 2017):

Tests used:
[1] = biological target: T1, [Pyruvate dehydrogenase (acetyl-transferring)] kinase isozyme 4, mitochondrial (Homo sapiens, UniProt Q16654)
Description: Inhibition of PDHK4 (unknown origin) assessed as decrease in phosphorylation of E1alpha subunit at serine 293 residue after 1 hr by DELFIA

[2] = biological target: T2, [Pyruvate dehydrogenase (acetyl-transferring)] kinase isozyme 1, mitochondrial (Homo sapiens, UniProt Q15118); assay: Inhibition of PDHK1 (unknown origin) assessed as decrease in phosphorylation of E1alpha subunit at serine 293 residue after 1 hr by DELFIA
[3] = biological target: T3, Heat shock protein HSP 90-alpha (Homo sapiens, UniProt P07900); assay: Displacement of fluorescein-labelled VER160364 from HSP90A (unknown origin) after 90 mins by fluorescence polarization assay
[4] = biological target: T2, [Pyruvate dehydrogenase (acetyl-transferring)] kinase isozyme 1, mitochondrial; assay: Inhibition of fluorescein-labelled VER160364 binding to PDHK1 (unknown origin) after 90 mins by fluorescence polarization assay
PC-3 = assay: Antiproliferative activity against human PC3 cells after 96 hrs by sulphorhodamine B assay; type: functional; details: PC-3, 96 h
[5] = biological target: T2, [Pyruvate dehydrogenase (acetyl-transferring)] kinase isozyme 1, mitochondrial; assay: Inhibition of PDHK1 in human PC3 cells assessed as decrease in phosphorylation of E1alpha subunit at serine 293 residue after 1 hr by ELISA; type: cell-based
[6] = biological target: T2, [Pyruvate dehydrogenase (acetyl-transferring)] kinase isozyme 1, mitochondrial; assay: Binding affinity to PDHK1 (unknown origin) by surface plasmon resonance method
[7] = biological target: T3, Heat shock protein HSP 90-alpha; assay: Dissociation rate from HSP90A (unknown origin) by surface plasmon resonance method
[8] = biological target: T3, Heat shock protein HSP 90-alpha; assay: Displacement of fluorescein-labelled VER160364 from HSP90A (unknown origin) at 200 uM after 90 mins by fluorescence polarization assay relative to control
[9] = biological target: [Pyruvate dehydrogenase (acetyl-transferring)] kinase isozyme 3, mitochondrial (Homo sapiens, UniProt Q15120); assay: Inhibition of fluorescein-labelled VER160364 binding to PDHK3 (unknown origin) after 90 mins by fluorescence polarization assay
[10] = biological target: [Pyruvate dehydrogenase (acetyl-transferring)] kinase isozyme 2, mitochondrial (Homo sapiens, UniProt Q15119); assay: Inhibition of fluorescein-labelled VER160364 binding to PDHK2 (unknown origin) after 90 mins by fluorescence polarization assay
[11] = biological target: T1, [Pyruvate dehydrogenase (acetyl-transferring)] kinase isozyme 4, mitochondrial; assay: Inhibition of fluorescein-labelled VER160364 binding to PDHK4 (unknown origin) after 90 mins by fluorescence polarization assay
[12] = biological target: T2, [Pyruvate dehydrogenase (acetyl-transferring)] kinase isozyme 1, mitochondrial; assay: Binding affinity to PDHK1 (unknown origin) by isothermal titration calorimetry
[13] = biological target: T2, [Pyruvate dehydrogenase (acetyl-transferring)] kinase isozyme 1, mitochondrial; assay: Inhibition of SUMO-tagged PDHK1 (unknown origin) in presence of [gamma-32P]ATP after 30 mins by SDS-PAGE based phosphor imaging method
[14] = Inhibition of PDHK (unknown origin); set-up: species or system Homo sapiens

T2 sequence (Q15118 whole entry): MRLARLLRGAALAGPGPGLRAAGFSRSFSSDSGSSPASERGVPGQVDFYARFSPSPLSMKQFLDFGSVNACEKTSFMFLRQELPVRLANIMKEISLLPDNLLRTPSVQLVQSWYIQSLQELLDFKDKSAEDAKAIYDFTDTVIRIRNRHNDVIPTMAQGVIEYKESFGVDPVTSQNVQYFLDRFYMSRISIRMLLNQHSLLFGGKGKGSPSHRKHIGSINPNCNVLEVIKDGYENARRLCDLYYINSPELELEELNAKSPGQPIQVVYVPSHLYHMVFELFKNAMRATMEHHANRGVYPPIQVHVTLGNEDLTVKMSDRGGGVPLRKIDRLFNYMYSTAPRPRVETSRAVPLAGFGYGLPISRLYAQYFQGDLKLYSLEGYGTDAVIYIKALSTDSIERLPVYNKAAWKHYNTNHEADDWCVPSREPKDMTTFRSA
T1 sequence (Q16654 whole entry): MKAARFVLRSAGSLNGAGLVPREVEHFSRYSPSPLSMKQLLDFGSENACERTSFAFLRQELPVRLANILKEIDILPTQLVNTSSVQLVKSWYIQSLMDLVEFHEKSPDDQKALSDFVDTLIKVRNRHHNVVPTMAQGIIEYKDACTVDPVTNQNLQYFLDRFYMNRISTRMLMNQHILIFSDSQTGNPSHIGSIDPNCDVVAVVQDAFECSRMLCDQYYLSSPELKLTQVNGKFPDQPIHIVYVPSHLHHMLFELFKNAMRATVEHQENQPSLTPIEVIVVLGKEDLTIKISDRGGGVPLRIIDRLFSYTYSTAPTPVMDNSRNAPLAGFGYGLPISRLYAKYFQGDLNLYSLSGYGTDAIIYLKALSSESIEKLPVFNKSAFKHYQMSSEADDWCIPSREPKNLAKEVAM
[Pyruvate dehydrogenase (acetyl-transferring)] kinase isozyme 3, mitochondrial, sequence (Q15120 whole entry): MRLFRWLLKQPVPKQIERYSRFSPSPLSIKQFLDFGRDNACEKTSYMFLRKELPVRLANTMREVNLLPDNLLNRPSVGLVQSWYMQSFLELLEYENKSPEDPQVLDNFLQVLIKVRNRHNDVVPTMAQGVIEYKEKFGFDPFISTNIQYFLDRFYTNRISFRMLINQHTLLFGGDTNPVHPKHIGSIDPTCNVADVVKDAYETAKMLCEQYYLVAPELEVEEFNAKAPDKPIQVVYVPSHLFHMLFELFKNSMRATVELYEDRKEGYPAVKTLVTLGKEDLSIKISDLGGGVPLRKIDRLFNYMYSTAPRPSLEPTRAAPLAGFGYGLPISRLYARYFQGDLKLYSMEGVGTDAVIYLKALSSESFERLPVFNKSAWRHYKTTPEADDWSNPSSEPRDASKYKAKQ

IC50 [2]	Ki [4]	IC50 [5]	Ki [3]	Kd [6]	SMILES	further results
2.1 µM	–	–	–	–	O=S(=O)(c1ccc(O)cc1O)N1Cc2cc(O)cc(O)c2C1	IC50 [1]: 0.84 µM; IC50 [3]: 47 µM
0.036 µM	0.016 µM	3.01 µM	2.51 µM	0.006 µM	C[C@H]1CCc2cc(C(=O)N(C)Cc3ccc4nccnc4c3)ccc2N1C(=O)c1ccc(O)cc1O	GI50 (PC-3): 30 µM
0.101 µM	0.037 µM	2.15 µM	3.21 µM	0.078 µM	Cc1cnc(Cl)nc1-c1ccc(N(Cc2ccc(CN3CCCC3)cc2)C(=O)c2ccc(O)cc2O)cc1	GI50 (PC-3): 38 µM
–	0.136 µM	–	0.032 µM	–	CCNC(=O)c1noc(-c2cc(Cl)c(O)cc2O)c1-c1ccc(CN2CCOCC2)cc1C	koff [7]: 0.001 s⁻¹; koff [6]: 0.014 s⁻¹
–	1.17 µM	–	–	–	C[C@@H]1CCc2cc(F)ccc2N1C(=O)c1ccc(O)cc1O	koff [7]: 0.6 s⁻¹; inhibition [8]: 62%; koff [6]: 0.27 s⁻¹
0.135 µM	0.64 µM	1.82 µM	> 50 µM	0.009 µM	C[C@H]1CCc2cc(-c3nc(Cl)nc4[nH]ccc34)ccc2N1C(=O)c1ccc(O)cc1O	GI50 (PC-3): 15 µM
–	–	–	> 100 µM	–	Cc1cnc(Cl)nc1-c1ccc(N(Cc2ccc(CNC(=O)C(F)F)cc2)C(=O)c2ccc(O)cc2O)cc1	GI50 (PC-3): 26.2 µM
–	1.93 µM	–	1.38 µM	–	COc1ccc(N(C)C(=O)c2ccc(O)cc2O)cc1	Ki [9]: 0.55 µM; IC50 [3]: 3.02 µM; IC50 [10]: 2.23 µM; Ki [10]: 1.07 µM; Ki [11]: 1.27 µM
–	0.2 µM	–	9.15 µM	–	CC1CCc2cc(F)ccc2N1C(=O)c1ccc(O)cc1O (racemic)	koff [7]: 0.23 s⁻¹; koff [6]: 0.08 s⁻¹
–	–	–	–	–	COc1cc2c(cc1OC)C(c1cccnc1)N(C(=O)c1ccc(O)cc1O)CC2 (configuration not stated)	koff [7]: 0.29 s⁻¹; koff [6]: 0.019 s⁻¹
0.072 µM	0.067 µM	1.72 µM	6.55 µM	0.016 µM	Cc1cnc(Cl)nc1-c1ccc(N(Cc2ccccc2)C(=O)c2ccc(O)cc2O)cc1	GI50 (PC-3): > 40 µM; Kd [12]: 0.06 µM
–	0.26 µM	–	0.184 µM	–	CN(C(=O)c1ccc(O)cc1O)c1ccc(C(=O)N2CC(C(=O)O)Oc3ccccc32)cc1 (configuration not stated)	–
–	–	0.041 µM	–	–	CN(C)C(=O)c1ccc(S(=O)(=O)c2ccc(NC(=O)[C@@](C)(O)C(F)(F)F)c(Cl)c2)cc1	–
0.015 µM	–	5.77 µM	> 50 µM	0.01 µM	Cc1cnc(Cl)nc1-c1ccc2c(c1)CC[C@H](c1cccnc1)N2C(=O)c1ccc(O)cc1O	–
–	–	–	–	–	C[C@@H]1C[C@H]2O[C@@H]2/C=C\C=C\C(=O)Cc2c(Cl)c(O)cc(O)c2C(=O)O1 [RADICICOL]	IC50 [13]: 230 µM; IC50 [14]: 1200 µM
–	–	–	1.23 µM	–	CN(C)C(=O)c1ccc(N(C)C(=O)c2ccc(O)cc2O)cc1	IC50 [3]: 2.97 µM; IC50 [10]: 0.35 µM; Ki [10]: 0.15 µM
0.139 µM	0.124 µM	2.68 µM	10.6 µM	0.115 µM	Cc1cc2ccccc2nc1-c1ccc2c(c1)CC[C@H](C)N2C(=O)c1ccc(O)cc1O	GI50 (PC-3): 14 µM; Kd [12]: 0.153 µM
0.198 µM	0.467 µM	2.78 µM	1.78 µM	0.01 µM	C[C@H]1CCc2cc(-c3nc(Cl)nc4ccsc34)ccc2N1C(=O)c1ccc(O)cc1O	–
–	–	–	–	–	CCN(CC)CCN(C(=O)c1ccc(O)cc1O)c1ccc(OC)cc1	inhibition [8]: 79%; IC50 [10]: 2.78 µM; Ki [10]: 1.33 µM
0.063 µM	0.037 µM	2.74 µM	1.98 µM	0.019 µM	Cc1cnc(Cl)nc1-c1ccc2c(c1)CC[C@H](C)N2C(=O)c1ccc(O)cc1O	GI50 (PC-3): 40 µM; Kd [12]: 0.032 µM
–	–	0.066 µM	–	–	C[C@@H]1CN(C(=O)[C@@](C)(O)C(F)(F)F)[C@@H](C)CN1C(=O)c1ccc(C#N)cc1	–
–	0.98 µM	–	–	–	O=C(c1ccc(O)cc1O)N(Cc1ccccc1)c1ccccc1	koff [7]: 0.14 s⁻¹; koff [6]: 0.26 s⁻¹
0.201 µM	0.241 µM	10.6 µM	> 50 µM	0.01 µM	COc1ccc(CN(C)C(=O)c2ccc(N(Cc3ccccc3)C(=O)c3ccc(O)cc3O)cc2)cc1	–
0.0627 µM	0.026 µM	5.65 µM	1.02 µM	0.001 µM	CN(Cc1ccc2nccnc2c1)C(=O)c1ccc(N(Cc2ccccc2)C(=O)c2ccc(O)cc2O)cc1	–
–	–	–	–	–	CCNC(=O)CN(C(=O)c1ccc(O)cc1O)c1ccc(OC)cc1	inhibition [8]: 74%; IC50 [10]: 4.46 µM; Ki [10]: 2.17 µM
–	0.09 µM	–	3.48 µM	–	C[C@H]1CCc2cc(F)ccc2N1C(=O)c1ccc(O)cc1O	koff [7]: 0.18 s⁻¹; koff [6]: 0.08 s⁻¹
